Where two headings read alike, the source gives them in different places.

The text below walks through data of patent publication US10751288B2, “Dry processed surface coated engineering excipients” (New Jersey Institute of Technology, priority 2016, dated 2020).

A short description of series [1]: Particle size distribution by laser diffraction (Rodos/Helos). To be noted: for median particle size (D50): starting materials. The class given is physicochemical. How it is done: Unless noted otherwise, particle size distribution provided herein is volume based particle size distribution was measured by a laser diffraction particle analyzer (Rodos/Helos system, Sympatec, NJ). Size statistics in terms of d10, d50 and d90 are reported, which are the values of the particle diameter at 10%, 50% and 90% respectively in the cumulative volumetric particle size distribution. In the Rodos/Helos system, the Rodos device works by venturi principle to disperse the powder, and the Helos unit uses laser diffraction principles of Fraunhofer Enhanced Evaluation (FREE) and Mie Extended Evaluation (MIEE) theories of light scattering to determine the particle size. Size statistics of d10, d50 and d90 at dispersion pressure of 0.1 bar are reported utilizing the FREE theory, the details for which can be found in Han et al. “Passivation of high surface energy sites of milled ibuprofen crystals via dry coating,” Journal of Pharmaceutical Sciences, Vol. 102(7), 1-15 (2013) and Jallo et al. “Improvement of flow and bulk density of pharmaceutical powders using surface modification,” International Journal of Pharmaceutics, 423 213-225 (2012).

Series [2] can be described thus: Conditioned bulk density, Freeman FT4 powder tester. It is filed as physicochemical. To be noted: Example 20, APIs alone. How it is done:
Unless otherwise noted, bulk density and flowability, i.e., flow function coefficient (FFC), as provided herein is obtained using a Freeman FT4 powder tester (Freeman Technologies Ltd., Worcestershire, UK), where the bulk density and the flow function coefficient (FFC) were defined as the ratio of consolidation stress to the unconfined yield stress. The FFC was evaluated from a shear test under the consolidation pressure of 3 kPa. Detailed procedures for both may be found in Freeman et al., Measuring the flow properties of consolidated, conditioned and aerated powders—A comparative study using a powder rheometer and a rotational shear cell. […]
Bulk density was measured through a standard FT4 testing procedure that first conditions the powder to yield very repeatable results for the bulk density as discussed in the detailed procedures of Freeman, et al. mentioned above. […] The conditioned bulk density was measured by loading the powder samples into the 25 ml split vessel above the minimum fill level. After a conditioning cycle was performed the vessel was split to remove the top portion of the powder; the density was determined from the mass of the remaining powder in the 25 ml vessel.
In addition to measuring the porosity of the tablets, the porosity of a powder sample, and its complement, packing fraction can be also determined as follows. […]

Series [3] is described as follows: Flow function coefficient (FFC), FT4 shear test at 3 kPa. To be noted: Example 20, APIs alone. It is filed as physicochemical.
A short description of series [4]: True (apparent particle) density by helium pycnometer. To be noted: Table 1. It is filed as physicochemical. The protocol:
First, the apparent particle density, […]app, for each powder (also referred to as the gas pycnometric and true density of particles) was determined using a helium multipycnometer (Model MVP-6DC, Quantachrome instruments, FL, 33426, USA; repeated five time to get an average). After this is determined, the porosity of each tablet (ε) was calculated from the apparent particle density (ρapp) and the diameter (D), thickness (t) and weight (w) of the tablets using the following equation. All quantities are in SI units.

The conditions of series [5]: from Huang et al., 2015; cited from earlier work.
The conditions of series [6]: from Huang et al., 2015; cited from earlier work. This is another data set of the same source.
[7] abbreviates: as-received commercial materials, Table 1.

As to `O=C1O[C@H]([C@@H](O)CO)C(O)=C1O` [Ascorbic Acid], the “median particle size (D50)” value in series [1] came out at 217 microns. The bulk density in series [2] came to 0.896 g/mL. In series [3], this compound registered an FFC of 4.67.
On to `CC(C)Cc1ccc(C(C)C(=O)O)cc1` (centres unmarked) [Ibuprofen 50], for which, in series [1], the “median particle size (D50)” value came to 58 microns.
As to `CC(=O)Nc1ccc(O)cc1` [Micronized APAP, micronized acetaminophen], in series [1] (setting [7]), the “Particle Size D10” value was 2 μm, the “Particle Size D50” value is reported as 10 μm and the “Particle Size D90” value is 37 μm. Further, in series [4], the “True Density” value came out at 1.29 g/mL. Also, the bulk density in series [2] amounted to 0.206 g/mL. Besides, the bulk density result in series [5] was “about 0.2 g/mL”. In addition, the FFC result in series [6] is listed as “about 2”.
